Test results published in paper PMC8881610 (Nature Communications, 2022).
Changes are numbered by the printed parent chain.

Legend:
Assay in all cases: Whole-cell binding assay, competition with 125I-GIP1-42
Design in all cases: acylated tirzepatide to the full-length or modified; Flag; expressed in transfected cells
[1] = molecular target: T1, GIPR (Homo sapiens, UniProt P48546, T345F); conditions: GIPR T345F; CHO-K1; read-out: binding pIC50 (converted)
T1 sequence (P48546 22-466 T345F): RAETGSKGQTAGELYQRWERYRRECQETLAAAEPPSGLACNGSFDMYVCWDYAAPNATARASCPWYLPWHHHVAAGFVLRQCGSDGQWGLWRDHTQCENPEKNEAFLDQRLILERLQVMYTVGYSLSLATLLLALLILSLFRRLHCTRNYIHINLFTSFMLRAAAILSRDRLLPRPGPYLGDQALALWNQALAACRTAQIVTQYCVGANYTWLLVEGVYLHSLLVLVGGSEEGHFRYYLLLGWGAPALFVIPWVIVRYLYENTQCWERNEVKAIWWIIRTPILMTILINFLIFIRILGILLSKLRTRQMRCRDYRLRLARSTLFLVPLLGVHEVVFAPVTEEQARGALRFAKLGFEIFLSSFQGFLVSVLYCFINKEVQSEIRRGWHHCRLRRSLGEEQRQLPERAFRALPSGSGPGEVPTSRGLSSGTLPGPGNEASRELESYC
In short: (§1)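 Transiently transfected CHO-K1 cells expressing WT or mutant GIPR were washed in F-12 with 0.1% BSA or 0.1% casein and 33 mM HEPES, then incubated 2 h at 37 °C. After ice-cold PBS washes, cells were lysed and bound radioactivity counted (CPM).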

[2] = molecular target: T2, GIPR (Homo sapiens, UniProt P48546, D191A); conditions: GIPR D191A, CHO-K1
T2 sequence (P48546 22-466 D191A): T1 sequence (P48546 22-466 T345F) with D170A, F324T
In short: as §1

[3] = molecular target: T3, GIPR (Homo sapiens, UniProt P48546, Y141A); conditions: GIPR Y141A, CHO-K1
T3 sequence (P48546 22-466 Y141A): T1 sequence (P48546 22-466 T345F) with Y120A, F324T
In short: as §1

[4] = molecular target: T4, GIPR (Homo sapiens, UniProt P48546, W90A); conditions: GIPR W90A, CHO-K1
T4 sequence (P48546 22-466 W90A): T1 sequence (P48546 22-466 T345F) with W69A, F324T
In short: as §1

[5] = read-out: binding pIC50 (converted)

Structure (SMILES) | IC50 [1] [nM] | binding Span [2] [% WT] | IC50 [2, 5] [nM] | binding Span [3] [% WT] | IC50 [3, 5] [nM] | binding Span [4] [% WT] | IC50 [4, 5] [nM] | binding pIC50 [2] | binding pIC50 [3] | binding pIC50 [4]
CCCCCCCCCCCCCCCC(=O)N[C@@H](CCC(=O)NCCCC[C@H](NC(=O)[C@H](CC(=O)O)NC(=O)[C@H](CO)NC(=O)[C@@H](NC(=O)[C@H](Cc1ccccc1)NC(=O)[C@@H](NC(=O)CNC(=O)[C@H](CCC(N)=O)NC(=O)C(C)(C)NC(=O)[C@@H](N)Cc1c[nH]cn1)[C@@H](C)O)[C@@H](C)O)C(=O)N[C@@H](CO)C(=O)N[C@@H](CCCCN)C(=O)N[C@@H](Cc1ccc(O)cc1)C(=O)N[C@@H](CC(C)C)C(=O)N[C@@H](CC(=O)O)C(=O)N[C@@H](CCC(=O)O)C(=O)N[C@@H](CCCNC(=N)N)C(=O)N[C@@H](C)C(=O)N[C@@H](C)C(=O)N[C@@H](CCC(N)=O)C(=O)N[C@@H](CC(=O)O)C(=O)N[C@@H](Cc1ccccc1)C(=O)N[C@H](C(=O)N[C@@H](CCC(N)=O)C(=O)N[C@@H](Cc1c[nH]c2ccccc12)C(=O)N[C@@H](CC(C)C)C(=O)N[C@@H](CC(C)C)C(=O)N[C@@H](CC(=O)O)C(=O)NCC(=O)NCC(=O)N1CCC[C@H]1C(=O)N[C@@H](CO)C(=O)N[C@@H](CO)C(=O)NCC(=O)N[C@@H](C)C(=O)N1CCC[C@H]1C(=O)N1CCC[C@H]1C(=O)N1CCC[C@H]1C(=O)N[C@@H](CO)C(N)=O)C(C)C)C(=O)O [Peptide 20] | 24 | 12.29 ± 1.02 | 9.12 | 14.88 ± 1.95 | 2.4 | 3.87 ± 1.12 | 2.69 |  |  | 
CC[C@H](C)[C@H](NC(=O)[C@H](CC(C)C)NC(=O)[C@H](Cc1c[nH]c2ccccc12)NC(=O)[C@H](CCC(N)=O)NC(=O)[C@@H](NC(=O)[C@H](Cc1ccccc1)NC(=O)[C@H](C)NC(=O)[C@H](CCCCNC(=O)COCCOCCNC(=O)COCCOCCNC(=O)CC[C@H](NC(=O)CCCCCCCCCCCCCCCCCCC(=O)O)C(=O)O)NC(=O)[C@H](CCC(N)=O)NC(=O)[C@H](C)NC(=O)[C@@H](NC(=O)[C@H](CCCCN)NC(=O)[C@H](CC(=O)O)NC(=O)[C@H](CC(C)C)NC(=O)C(C)(C)NC(=O)[C@@H](NC(=O)[C@H](CO)NC(=O)[C@H](Cc1ccc(O)cc1)NC(=O)[C@H](CC(=O)O)NC(=O)[C@H](CO)NC(=O)[C@@H](NC(=O)[C@H](Cc1ccccc1)NC(=O)[C@@H](NC(=O)CNC(=O)[C@H](CCC(=O)O)NC(=O)C(C)(C)NC(=O)[C@@H](N)Cc1ccc(O)cc1)[C@@H](C)O)[C@@H](C)O)[C@@H](C)CC)[C@@H](C)CC)C(C)C)C(=O)N[C@@H](C)C(=O)NCC(=O)NCC(=O)N1CCC[C@H]1C(=O)N[C@@H](CO)C(=O)N[C@@H](CO)C(=O)NCC(=O)N[C@@H](C)C(=O)N1CCC[C@H]1C(=O)N1CCC[C@H]1C(=O)N1CCC[C@H]1C(=O)N[C@@H](CO)C(N)=O [Tirzepatide] | 129 |  |  |  |  |  |  | N.B. | N.B. | N.B.
